{
  "source": "patent US20240058387A1",
  "about": "“CULTURE MEDIUM COMPOSITION FOR AMPLIFYING AND MAINTAINING SELF-RENEWAL CAPACITY AND DIFFERENTIATION POTENTIAL OF HSCS AND APPLICATION THEREOF” (EDIGENE (GUANGZHOU) INC., priority 2020, published 2024)",
  "tested_on": "mobilized peripheral blood-derived CD34+ cells",
  "experiment": "Cell counting: absolute number of marker-positive cells, comparison with UM171 and SR1",
  "format": "cell-based, human",
  "settings": "FIG. 5B; 8 days; AG1296 at 1 μM; UM171 concentration not given",
  "procedure": "According to the solubility and required solvent indicated in the instructions of the small molecule inhibitor (see Table 1 for the Cat. number of the small molecule inhibitor), the preparation of the small molecule inhibitor stock solution was carried out. Next, the hematopoietic stem cell medium was prepared: SFEM II medium (stem cell, Cat. number: 09655)+50 ng/ml growth factor Flt-3L (PeProtech, Cat. number: 300-100UG)+50 ng/ml growth factor SCF (PeProtech, Cat. number): 300-07-100UG)+50 ng/ml growth factor TPO (PeProtech, Cat. number: 300-18-100UG)+10 ng/ml interleukin IL-6 (PeProtech, Cat. number: 200-06-20UG)+1% bispecific antibody (HyClone, Cat. No.: sv30010). According to the set concentration gradient of the small molecule inhibitor, the stock solution and the basal medium were used to prepare the medium containing different concentrations of the small molecule inhibitor.\nFirst, the prepared medium was added to a 24-well plate (Corning, Cat. number: 3473), 950 μl per well, and placing it in a carbon dioxide incubator (Thermo, model: 3111) to preheat; resuspending the spare umbilical cord Blood-derived HSCs of Example 1 with SFEM 11+50 ng/ml Flt-3L+50 ng/ml SCF+50 ng/ml TPO+10 ng/ml IL-6+1% bispecific antibody, calculating the medium volume to be added according to 50 μl cell suspension per well and 2*10^5/m1 cell density per well. For example, when the final volume of the cell culture solution per well was 1 ml, the total number of cells per well was 2*10^5 cells calculated according to the cell density per well, and the density of the […] of cell suspension supplemented to each well is 4*10^6/ml. The density of the spare HSCs of Example 1 was adjusted to the calculated density of the cell suspension, and adding it; taking out the preheated medium from the incubator, adding 50 μl of the cell suspension to each well, and after mixing, using the microscope (OLYMPUS, model: CKX53) to observe the cells state, and then putting it into an incubator for culturing.\nOn the mobilized peripheral blood-derived CD34+ cells sorted in Example 1, the screened-out inhibitor AG1296 and literature-reported (Fares I, et al. Science. 2014; Boitano A E, et al. Science. 2010) inhibitors UM171 and SR1 were compared in the same way as Example 2. Eight days after the induction of the small molecule inhibitor, the expression of LT-HSCs cell surface markers (CD34+CD45+CD90+CD45RA−CD38−) was detected by flow cytometry using the same method as in Example 3. After 8 days of culture, 20 μL of cell suspension was taken into a cell counter (Nexcelom, model: Cellometer K2) and counted, and the absolute numbers of the final CD34+ cells and LT-HSCs on […] were calculated (absolute number of cells=total number of cells*stemness ratio).",
  "data": [
    {"smiles": "Cn1nnc(-c2ccc3c(c2)[nH]c2nc(Cc4ccccc4)nc(NC4CCC(N)CC4)c23)n1", "note": "(stereo not shown) [UM171]", "values": [
      {"measurement": "absolute number of CD34+ cells", "result": "best effect"}
    ]}
  ]
}
